Experimental data from ChEMBL document CHEMBL1212695, “An allosteric potentiator of M4 mAChR modulates hippocampal synaptic transmission” (Nat Chem Biol, 2008).
The source made the active and inactive calls. The rule behind the calls is not given here.

What was measured:
[1] = molecular target: T1, Muscarinic acetylcholine receptor M4 (Mus musculus) (UniProt P32211); experiment: Agonist activity at muscarinic M4 receptor in wild type mouse hippocampal CA1 pyramidal neuron assessed as reduction of excitatory postsynaptic current at 2 uM by whole-cell electrophysiology relative to control; assay type: functional, tissue-based; settings: Hippocampus
T1 sequence (whole entry): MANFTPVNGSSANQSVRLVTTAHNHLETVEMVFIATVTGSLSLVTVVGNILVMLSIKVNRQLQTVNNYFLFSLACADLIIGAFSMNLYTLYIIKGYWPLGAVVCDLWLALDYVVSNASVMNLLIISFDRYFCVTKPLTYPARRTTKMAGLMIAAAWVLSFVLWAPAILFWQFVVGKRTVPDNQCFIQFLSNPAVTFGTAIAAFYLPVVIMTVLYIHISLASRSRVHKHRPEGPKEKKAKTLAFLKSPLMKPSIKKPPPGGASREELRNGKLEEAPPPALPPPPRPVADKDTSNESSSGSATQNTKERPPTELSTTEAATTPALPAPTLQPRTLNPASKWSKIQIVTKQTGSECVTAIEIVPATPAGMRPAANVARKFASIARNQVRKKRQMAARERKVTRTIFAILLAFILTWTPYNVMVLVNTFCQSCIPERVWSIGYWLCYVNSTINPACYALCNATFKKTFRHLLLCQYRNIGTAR

CHO [2] = experiment: Antagonist activity at P2Y1 receptor in CHO cells assessed as calcium mobilization at 10 uM after 1 hr by fluorescence assay; assay type: functional, cell-based; settings: Cricetulus griseus
[3] = Agonist activity at muscarinic receptor in M4 receptor knock out mouse hippocampal CA1 pyramidal neuron assessed as reduction of excitatory postsynaptic current amplitude at 2 uM by whole-cell electrophysiology relative to control; assay type: functional; settings: Hippocampus
CHO [4] = experiment: Agonist activity at P2Y1 receptor in CHO cells assessed as induction of calcium mobilization at 10 uM after 1 hr by fluorescence assay; assay type: functional, cell-based; settings: Cricetulus griseus
[5] = molecular target: T2, Muscarinic acetylcholine receptor M4 (Rattus norvegicus) (UniProt P08485); experiment: Agonist activity at muscarinic M4 receptor in Sprague-Dawley rat hippocampal CA1 pyramidal neuron assessed as reversible inhibition of excitatory postsynaptic current by whole-cell electrophysiology; assay type: functional, tissue-based; settings: Hippocampus
T2 sequence (whole entry): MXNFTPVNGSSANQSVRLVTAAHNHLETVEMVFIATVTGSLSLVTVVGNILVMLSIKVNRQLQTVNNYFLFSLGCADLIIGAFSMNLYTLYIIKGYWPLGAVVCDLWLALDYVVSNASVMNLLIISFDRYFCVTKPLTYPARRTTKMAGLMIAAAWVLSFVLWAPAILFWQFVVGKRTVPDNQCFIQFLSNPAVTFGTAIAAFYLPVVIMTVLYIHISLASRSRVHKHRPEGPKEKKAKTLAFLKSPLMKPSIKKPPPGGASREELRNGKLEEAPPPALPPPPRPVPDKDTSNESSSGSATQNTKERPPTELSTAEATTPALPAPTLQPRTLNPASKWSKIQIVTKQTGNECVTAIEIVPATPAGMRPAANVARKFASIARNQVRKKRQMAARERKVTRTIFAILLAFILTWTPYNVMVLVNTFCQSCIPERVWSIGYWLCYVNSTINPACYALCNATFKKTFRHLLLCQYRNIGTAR

[6] = molecular target: T3, Muscarinic acetylcholine receptor M2 (Rattus norvegicus) (UniProt P10980); experiment: Allosteric activation of rat recombinant muscarinic M2 receptor expressed in CHO cells assessed as potentiation of acetylcholine-induced calcium mobilization at 10 uM after 1 hr by fluorescence assay; assay type: functional, cell-based
T3 sequence (whole entry): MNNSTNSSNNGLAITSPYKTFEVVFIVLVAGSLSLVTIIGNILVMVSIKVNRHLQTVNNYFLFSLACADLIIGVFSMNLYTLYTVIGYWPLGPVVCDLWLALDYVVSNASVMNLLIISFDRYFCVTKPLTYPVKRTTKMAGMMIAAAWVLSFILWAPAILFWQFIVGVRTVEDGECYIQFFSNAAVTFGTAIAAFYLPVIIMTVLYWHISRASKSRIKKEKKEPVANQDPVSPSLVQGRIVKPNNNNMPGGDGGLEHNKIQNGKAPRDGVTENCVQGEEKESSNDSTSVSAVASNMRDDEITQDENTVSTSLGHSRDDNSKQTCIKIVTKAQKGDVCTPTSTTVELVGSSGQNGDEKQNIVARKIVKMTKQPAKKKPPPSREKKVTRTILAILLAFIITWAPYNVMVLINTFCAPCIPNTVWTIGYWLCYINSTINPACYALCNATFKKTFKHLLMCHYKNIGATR

[7] = Agonist activity at muscarinic receptor in M4 receptor knock out mouse hippocampal CA1 pyramidal neuron assessed as reduction of excitatory postsynaptic current amplitude at 100 uM by whole-cell electrophysiology relative to control; assay type: functional; settings: Hippocampus
[8] = molecular target: T1, Muscarinic acetylcholine receptor M4 (Mus musculus); experiment: Agonist activity at muscarinic M4 receptor in wild type mouse hippocampal CA1 pyramidal neuron assessed as reduction of excitatory postsynaptic current at 100 uM by whole-cell electrophysiology relative to control; assay type: functional, tissue-based; settings: Hippocampus
[9] = molecular target: T4, Muscarinic acetylcholine receptor M1 (Rattus norvegicus) (UniProt P08482); experiment: Allosteric activation of rat recombinant muscarinic M1 receptor expressed in CHO cells assessed as potentiation of acetylcholine-induced calcium mobilization at 10 uM after 1 hr by fluorescence assay; assay type: functional, cell-based
T4 sequence (whole entry): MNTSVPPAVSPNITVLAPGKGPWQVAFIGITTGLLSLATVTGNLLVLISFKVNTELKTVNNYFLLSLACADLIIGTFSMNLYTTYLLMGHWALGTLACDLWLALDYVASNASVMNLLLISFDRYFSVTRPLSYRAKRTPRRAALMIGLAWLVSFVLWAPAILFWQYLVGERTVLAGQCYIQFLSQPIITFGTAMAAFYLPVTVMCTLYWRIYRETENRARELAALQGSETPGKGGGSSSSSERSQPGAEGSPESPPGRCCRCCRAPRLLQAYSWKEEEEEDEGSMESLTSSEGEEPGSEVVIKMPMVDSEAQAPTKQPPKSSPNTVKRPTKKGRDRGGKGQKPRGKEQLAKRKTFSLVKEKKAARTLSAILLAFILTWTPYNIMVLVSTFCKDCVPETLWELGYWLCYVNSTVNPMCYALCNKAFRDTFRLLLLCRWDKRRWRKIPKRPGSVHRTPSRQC

Q: With Cc1cc(C)c2c(N)c(C(=O)NCc3ccc(Cl)cc3)sc2n1 as the molecule, how does the inhibition [1] read?
A: 53.7%

Q: And the Activity (CHO [2])?
A: inactive

Q: What about the inhibition at 2 µM [3] of the same molecule?
A: 70.8%

Q: And the Activity (CHO [4])?
A: inactive

Q: What about the Activity [5] of the same molecule?
A: Dose-dependent effect

Q: And the Activity [6]?
A: inactive

Q: And the inhibition at 100 µM [7]?
A: 21.1%

Q: And the inhibition [8]?
A: 18%

Q: What about the Activity [9] of the same molecule?
A: inactive
